Key:
PBR [1] = molecular target: PBR (Homo sapiens, UniProt P30536); settings: in vivo; cited from earlier work
[2] = cited from earlier work
Wistar rat heart PBR = Wistar rat heart PBR (Rattus norvegicus, UniProt P16257); assay: biochemical
Procedure: Affinity for PBR was screened using a method adapted from Le Fur et al (Life Sci. 1983; USA 33: 449-57).
Each test compound (dissolved in 50 mM Tris-HCl, pH 7.4, 10 mM MgCl2 containing 1% DMSO) competed for binding to Wistar rat heart PBR against 0.3 nM [^3H] […] The reaction was carried out in 50 mM Tris-HCl, pH 7.4 10 mM MgCl2 for 15 minutes at 25° C.

PBR [3] = molecular target: T1, PBR (Rattus norvegicus, UniProt P16257); assay: In vivo biodistribution model: OB:striatum uptake; design: species or system Wistar rats; settings: injection via lateral tail vein, 2, 10, 30 or 60 min, in words, compared with PBR06
T1 construct: OB is known to express higher levels of PBR compared with other areas of rat brain; from tissue; host or cells: living Wistar rats; olfactory bulb and striatum sampled
T1 sequence (P16257 whole entry): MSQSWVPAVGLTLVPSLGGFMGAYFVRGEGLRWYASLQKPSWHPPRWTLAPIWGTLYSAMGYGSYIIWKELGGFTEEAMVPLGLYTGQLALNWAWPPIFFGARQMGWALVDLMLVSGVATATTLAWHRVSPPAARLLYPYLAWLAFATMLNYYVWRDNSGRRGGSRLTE
Procedure: Example 11 describes the rat biodistribution model that was used to compare in vivo imaging agents of the invention with PBR06. […] As OB is known to express higher levels of PBR compared with other areas of rat brain (see “Handbook of Substance Abuse” by Tarter, Ammerman and Ott; Springer 1998: 398-99) the ratio OB:striatum is a measure of specificity of test compound uptake.
PBR06 (synthesised according to Briard et al J Med Chem 2009; 52: 688-699) and in vivo imaging agents 1-3 were tested in an in vivo biodistribution model and their respective biodistributions compared.
Adult male Wistar rats (200-300 g) were injected with 1-3 MBq of test compound via the lateral tail vein. At 2, 10, 30 or 60 min (n=3) after injection, rats were euthanised and tissues or fluids were sampled for radioactive measurement on a gamma counter.

[4] = Briard et al J Med Chem 2009; cited from earlier work
[5] = Metabolism assay: intact test compound in rat brain by HPLC; assay type: in vivo, Wistar rats; settings: 60 minutes post-injection; for proportion intact in the brain (in words): compared with PBR06
Procedure: Example 12 describes the assay used to evaluate the amount of intact test in vivo imaging agent in rat brain at 60 minutes post-injection.
Brain tissue samples were collected from adult male Wistar rats (200-300 g) at 60 minutes after injection of test in vivo imaging agent. These samples were then processed via solvent extraction (see below) to extract the ^18F-labelled parent along with any ^18F-labelled metabolites, before introduction to the HPLC.
Brain (minus cerebellum +medulla pons) was homogenized with 10 mls of ice-cold Acetonitrile (5000 rpm for 5 mins) to extract all the ^18F-labelled species. The resulting supernatant was then evaporated to dryness (rotary evaporation at 40° C.), concentrated in 2.5 mls of mobile phase, filtered and 1 ml was injected onto the HPLC.
The HPLC set up for ^18F analysis was connected to a dual BGO radio & UV detector. A μBondapak C18 prep column was used having dimensions 7.8×300 mm; 10 μm; 125 Å. An isocratic elution system was used using between 30-40% water and between 60-70% acetonitrile. The flow rate was 3 ml/min. The aqueous to organic phase ratio was varied for each test in vivo imaging agent to obtain a parent peak at retention time at or around 10 min±2 min.

Sequence of Wistar rat heart PBR (P16257 whole entry): as above
Sequence of PBR (Homo sapiens, UniProt P30536) (P30536 whole entry, species assumed): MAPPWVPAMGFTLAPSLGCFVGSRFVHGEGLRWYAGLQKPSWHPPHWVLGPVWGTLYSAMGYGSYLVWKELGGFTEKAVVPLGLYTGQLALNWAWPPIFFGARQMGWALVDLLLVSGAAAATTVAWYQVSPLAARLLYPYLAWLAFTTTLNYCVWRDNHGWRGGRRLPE

SMILES | specific to non-specific binding (PBR [1]) | protein binding [2] | Ki (Wistar rat heart PBR) [nM] | OB:striatum uptake (ratio of uptake in olfactory bulb compared to striatum) (PBR [3]) | metabolism in the periphery [4] | penetration of metabolites through the blood-brain barrier [4] | percentage of radioactivity in the brain representing intact test compound [5] [%] | proportion intact in the brain (in words) [5]
CC[C@@H](C)N([11CH3])C(=O)c1cc2ccccc2c(-c2ccccc2Cl)n1 [(R)-[^11C]PK11195] | low specific to non-specific binding | high protein binding | – | – | – | – | – | –
COc1ccc(OC)c(CN(C(=O)C[18F])c2ccccc2Oc2ccccc2)c1 [PBR06, reference compound] | – | – | 0.28 | less than optimal for in vivo imaging | metabolised quite rapidly in the periphery | do not penetrate the blood-brain barrier | 90 | –
O=C(C[18F])N(Cc1cccc2c1OCC2)c1ccccc1Oc1ccccc1 [in vivo imaging agent 1] | – | – | 0.31 | taken up relatively more in the OB as compared with the striatum | – | – | 93 | even higher proportion intact in the brain at 60 minutes post-injection as compared with PBR06
O=C(C[18F])N(Cc1cccc2c1OCO2)c1ccccc1Oc1ccccc1 [in vivo imaging agent 2] | – | – | 2.03 | comparable with PBR06 | – | – | 92 | even higher proportion intact in the brain at 60 minutes post-injection as compared with PBR06
O=C(C[18F])N(Cc1cccc2c1OCCO2)c1ccccc1Oc1ccccc1 [in vivo imaging agent 3] | – | – | 1.14 | comparable with PBR06 | – | – | 82 | –
CC1(C)Cc2cccc(CN(C(=O)C[18F])c3ccccc3Oc3ccccc3)c2O1 [in vivo imaging agent 4] | – | – | 2.66 | – | – | – | – | –

Source: US8771641B2, “Aryloxyanilide imaging agents” (priority 2009, dated 2014)
